In PMC9146377, “Design and Synthesis of Novel Bis-Imidazolyl Phenyl Butadiyne Derivatives as HCV NS5A Inhibitors” (Pharmaceuticals, 2022):
Where two headings read alike, the source gives them in different places.

Legend:
[1] = Cytotoxicity assay (intracellular ATP levels) in Huh5-2 replicon cells; format: cell-based; conditions: human, Huh5-2 cells, read-out: HCV Replicon 1b CC50
Protocol: (§1) All synthesized compounds were tested against HCV genotype 1b Con-1 subgenomic replicon in the Huh-5-2 stable cell line. Specifically, their activity against viral replication was estimated by measuring firefly luciferase, which is co-expressed by the bicistronic replicon, and their half-maximal effective concentrations (EC50) were determined. In parallel, the half-maximal cytotoxic concentrations (CC50) of the compounds were estimated, and their selective indexes (SI50: CC50/ EC50) were calculated. All novel synthesized compounds were active against HCV 1b with EC50 < 1 µM except for compound 4b (Table 3).
Intracellular ATP levels were measured to determine the cytotoxicity of the compounds in the treated cells. In 96-well plates, 10^4 cells per well were seeded, incubated with serial dilutions of the compounds or DMSO as a control for 72 h at 37 °C (5% CO2) and lysed for ATP measurement. ATP levels were measured using the ViaLight HS BioAssay kit (Lonza, Basel, Switzerland) in a GloMax 20/20 single-tube luminometer (Promega) for 1 s, according to the manufacturer’s protocol. Values were normalized to total protein amounts and used to determine the compound concentration causing 50% cell death (CC50). Nonlinear regression analysis was performed using Prism 5.0 software (GraphPad Software Inc., San Diego, CA, USA).

[2] = test system: HCV genotype 1b Con-1 subgenomic replicon; assay: Anti-HCV luciferase assay, genotype 1b (Con1) subgenomic replicon in Huh5-2 cells; format: cell-based, Hepatitis C virus; conditions: for HCV Replicon 1b SI50: CC50/EC50, Huh5-2 cells
Protocol: as §1
Huh5-2 [65] and Huh7-JFH1 [66] stable cell lines harbor the subgenomic HCV reporter replicon I389luc-ubi-neo/NS3-3′/Con1/5.1 (genotype 1b; strain Con1) and I389luc-ubi-neo/NS3-3′_dg_JFH1 (genotype 2a, JFH1 strain), respectively (kindly provided by R. Bartenschlager, Heidelberg University, Heidelberg, Germany). Huh7.5-3a and Huh7.5-4a stable cell lines harbor the subgenomic HCV reporter replicon S52-SG (Feo) (AII) (genotype 3a; S52 strain) and ED43-SG (Feo) (VYG) (genotype 4a; ED43 strain), respectively (viral constructs kindly provided by C.M. Rice, Rockefeller University, New York, NY, USA). These replicons carry as a first cistron firefly luciferase (F-Luc) and neomycin phosphotransferase genes under the translational control of the HCV internal ribosome entry site (IRES), followed by HCV NS3 to NS5B proteins under the control of the EMCV IRES.
The anti-HCV assay in replicon cells was performed by seeding 1 × 10^4 cells per well in a 96-well plate. After 24 h of incubation at 37 °C (5% CO2) and medium removal, serial dilutions of the test compounds in complete DMEM were added. Cells were lysed after 72 h, and F-Luc activity was measured. The anti-HCV assay for the full-length viral construct H77S.3/GLuc2A was performed after electroporation of Huh7-Lunet cells with viral RNA. Cells were seeded in 96-well plates, the medium was removed 24 h after electroporation, and serial dilutions of the compounds in complete DMEM were added. At 72 h post-treatment, cell supernatants were collected, and G-Luc activity was measured. In addition, the cells were lysed for total protein quantification.
Relative luminescence units (RLU) were expressed as a percentage of the respective units derived from DMSO-treated cells (control). The half-maximal effective concentration (EC50), defined as the concentration of compound that reduces luciferase signal by 50%, was calculated by dose-response curve analysis using Prism 5.0 software (GraphPad Software Inc., San Diego, CA, USA).
The F-Luc activity was measured using the Luciferase Assay System (Promega, Madison, WI, USA), as recommended by the manufacturer. The G-Luc activity was measured using 12 μM coelenterazine (Promega) in assay buffer (50 mM potassium phosphate, pH 7.4, 500 mM NaCl, 1 mM EDTA). Measurements were carried out using a GloMax 20/20 single tube luminometer (Promega) for 10 s. The F-Luc activity was normalized to the total protein amount determined using the Bradford assay reagent (Pierce, Waltham, MA, USA).

[3] = Hepatitis C virus, Huh-5-2, 72 h, Huh5-2 cells, Con1 strain, F-Luc, 72 h, mean of three experiments, read-out: HCV Replicon 1b EC50
[4] = Huh5-2 cells, Con1 strain, F-Luc, 72 h, mean of three experiments, read-out: HCV Replicon 1b EC50
[5] = Hepatitis C virus, Huh-5-2, 72 h, read-out: HCV Replicon 1b EC50, Huh5-2 cells, Con1 strain, F-Luc, 72 h, mean of three experiments

SMILES: COC(=O)N[C@@H](CC(C)C)C(=O)N1CCC[C@H]1c1ncc(-c2ccc(C#CC#Cc3ccc(-c4cnc([C@@H]5CCCN5C(=O)[C@H](CC(C)C)NC(=O)OC)[nH]4)cc3)cc2)[nH]1 [Compound 5b, Dimethyl ((2S,2′S)-((2S,2′S)-((buta-1,3-diyne-1,4-diylbis(4,1-phenylene))bis(1H-imidazole-5,2-diyl))bis(pyrrolidine-2,1-diyl))bis(4-methyl-1-oxopentane-1,2-diyl))dicarbamate]
- CC50 at 72 h [1]: > 100000 nM
- melting point: 124 to 126 °C
- HCV Replicon 1b SI50 [2]: >6203.47
- EC50 [2, 3]: 16.1 nM
- EC50 [2, 4]: 16.1 nM

SMILES: COC(=O)N[C@H](CC(C)C)C(=O)N1CCC[C@H]1c1ncc(-c2cccc(C#CC#Cc3cccc(-c4cnc([C@@H]5CCCN5C(=O)[C@@H](CC(C)C)NC(=O)OC)[nH]4)c3)c2)[nH]1 [Compound 6a, Dimethyl ((2R,2′R)-((2S,2′S)-((buta-1,3-diyne-1,4-diylbis(3,1-phenylene))bis(1H-imidazole-5,2-diyl))bis(pyrrolidine-2,1-diyl))bis(4-methyl-1-oxopentane-1,2-diyl))dicarbamate]
- CC50 at 72 h [1]: > 100000 nM
- melting point: 111 to 113 °C
- HCV Replicon 1b SI50 [2]: >1034.23
- EC50 [2, 5]: 96.6 nM
- EC50 [2, 4]: 96.7 nM

SMILES: COC(=O)N[C@H](CC(C)C)C(=O)N1CCC[C@H]1c1ncc(-c2ccc(C#CC#Cc3ccc(-c4cnc([C@@H]5CCCN5C(=O)[C@@H](CC(C)C)NC(=O)OC)[nH]4)cc3)cc2)[nH]1 [Compound 6b, Dimethyl ((2R,2′R)-((2S,2′S)-((buta-1,3-diyne-1,4-diylbis(4,1-phenylene))bis(1H-imidazole-5,2-diyl))bis(pyrrolidine-2,1-diyl))bis(4-methyl-1-oxopentane-1,2-diyl))dicarbamate]
- CC50 at 72 h [1]: > 100000 nM
- melting point: 129 to 131 °C
- HCV Replicon 1b SI50 [2]: >1512.63
- EC50 [2, 5]: 42.1 nM
- EC50 ([2]; Hepatitis C virus, Huh-5-2, Table S1, in vitro result versus genotype 1b, read-out: NS5A EC50): 66.1 nM

SMILES: CCOC(=O)N[C@@H](CC(C)C)C(=O)N1CCC[C@H]1c1ncc(-c2ccc(C#CC#Cc3ccc(-c4cnc([C@@H]5CCCN5C(=O)[C@H](CC(C)C)NC(=O)OCC)[nH]4)cc3)cc2)[nH]1 [Compound 7b, Diethyl ((2S,2′S)-((2S,2′S)-((buta-1,3-diyne-1,4-diylbis(4,1-phenylene))bis(1H-imidazole-5,2-diyl))bis(pyrrolidine-2,1-diyl))bis(4-methyl-1-oxopentane-1,2-diyl))dicarbamate]
- CC50 at 72 h [1]: > 100000 nM
- melting point: 118 to 120 °C
- HCV Replicon 1b SI50 [2]: >1699.23
- EC50 [2, 3]: 58.9 nM

SMILES: CCOC(=O)N[C@H](CC(C)C)C(=O)N1CCC[C@H]1c1ncc(-c2cccc(C#CC#Cc3cccc(-c4cnc([C@@H]5CCCN5C(=O)[C@@H](CC(C)C)NC(=O)OCC)[nH]4)c3)c2)[nH]1 [Compound 8a, Diethyl ((2R,2′R)-((2S,2′S)-((buta-1,3-diyne-1,4-diylbis(3,1-phenylene))bis(1H-imidazole-5,2-diyl))bis(pyrrolidine-2,1-diyl))bis(4-methyl-1-oxopentane-1,2-diyl))dicarbamate]
- CC50 at 72 h [1]: > 100000 nM
- melting point: 109 to 111 °C
- HCV Replicon 1b SI50 [2]: >1170.82
- EC50 [2, 5]: 85.4 nM
- EC50 [2, 4]: 85.4 nM

SMILES: CCOC(=O)N[C@H](CC(C)C)C(=O)N1CCC[C@H]1c1ncc(-c2ccc(C#CC#Cc3ccc(-c4cnc([C@@H]5CCCN5C(=O)[C@@H](CC(C)C)NC(=O)OCC)[nH]4)cc3)cc2)[nH]1 [Compound 8b, Diethyl ((2R,2′R)-((2S,2′S)-((buta-1,3-diyne-1,4-diylbis(4,1-phenylene))bis(1H-imidazole-5,2-diyl))bis(pyrrolidine-2,1-diyl))bis(4-methyl-1-oxopentane-1,2-diyl))dicarbamate]
- CC50 at 72 h [1]: > 100000 nM
- melting point: 129 to 132 °C
- HCV Replicon 1b SI50 [2]: >1289.98
- EC50 [2, 3]: 77.5 nM

SMILES: COC(=O)N[C@H](C(=O)N1CCC[C@H]1c1ncc(-c2cccc(C#CC#Cc3cccc(-c4cnc([C@@H]5CCCN5C(=O)[C@@H](NC(=O)OC)c5ccccc5)[nH]4)c3)c2)[nH]1)c1ccccc1 [Compound 9a, Dimethyl ((1S,1′S)-((2S,2′S)-((buta-1,3-diyne-1,4-diylbis(3,1-phenylene))bis(1H-imidazole-5,2-diyl))bis(pyrrolidine-2,1-diyl))bis(2-oxo-1-phenylethane-2,1-diyl))dicarbamate]
- CC50 at 72 h [1]: > 100000 nM
- melting point: 125 to 127 °C
- HCV Replicon 1b SI50 [2]: >1611.86
- EC50 [2, 5]: 62 nM
- EC50 [2, 4]: 62 nM

SMILES: COC(=O)N[C@@H](C(=O)N1CCC[C@H]1c1ncc(-c2ccc(C#CC#Cc3ccc(-c4cnc([C@@H]5CCCN5C(=O)[C@H](NC(=O)OC)c5ccccc5)[nH]4)cc3)cc2)[nH]1)c1ccccc1 [Compound 10b, Dimethyl ((1R,1′R)-((2S,2′S)-((buta-1,3-diyne-1,4-diylbis(4,1-phenylene))bis(1H-imidazole-5,2-diyl))bis(pyrrolidine-2,1-diyl))bis(2-oxo-1-phenylethane-2,1-diyl))dicarbamate]
- CC50 at 72 h [1]: > 100000 nM
- melting point: 125 to 127 °C
- HCV Replicon 1b SI50 [2]: >1180.77
- EC50 [2, 3]: 84.7 nM
